According to patent US8691584B2, “Sperm processing methods” (priority 2003, dated 2014):

Test system: Spermatozoa
Experiment: Post-thaw sperm motility under phase contrast microscope (Cryopreservation Example I)
Format: cell-based, Bovine
Conditions: Hoechst 33342 added to aliquots in TCA buffer, 20 min at 35° C. or 41° C., cryopreserved, thawed 37° C. 50 seconds; analysis of variance
Method: Bovine semen was collected, transported, and evaluated as described above. Two test tubes containing 5 ml each of TCA buffer (pH 7.3) were placed in one of two water baths for at least five minutes. One water bath was at a temperature of 35° C. and the other water bath was at 41° C. Spermatozoa at 24° C. were added to each tube so that the final concentration in each tube was 150×10^6 sperm/ml. The two tubes were each divided into two aliquots which were kept in respective water baths. After the sperm had equilibrated with the TCA buffer for five minutes, […] was added to one of 35° C. aliquots and one of the 41° C. aliquots. After addition of the Hoechst 33342, all four aliquots were incubated for 20 minutes in their respective water bath. After incubation, the test tubes were removed from the water baths and left at room temperature (about 25° C.) for five minutes. Then the contents of each test tube were diluted with a TCA extender containing 20% egg yolk and 6% glycerol (v/v) (pH 7.0) to a final concentration of 20×10^6 sperm/ml. The contents of each test tube were then used to fill a 0.5 ml artificial insemination straw. Each of the four straws was placed in a programmable freezer (an IceCube 1810CD freezer from Minitube of America, Wis.). […]

With `CCOc1ccc(-c2nc3ccc(-c4nc5ccc(N6CCN(C)CC6)cc5[nH]4)cc3[nH]2)cc1` [Hoechst 33342] the “effect on post-thaw sperm motility” value was “no significant effect”.
